# How the values were obtained:
# [1] = target: T1, human melanocortin-4 receptor (MC-4R) (Homo sapiens, UniProt P32245); assay: Functional assay: agonistic activity, cAMP production in membrane preparations compared with NDP-alpha-MSH, fluorescence polarization; type: biochemical; settings: for Emax: cAMP produced compared to stimulation with NDP-alpha-MSH, read-out: % activation functional assay; for EC50: cAMP production, membrane preparations from HEK293 cells expressing human MC-4R, read-out: hMC-4R functional assay EC50
# T1 construct: expressed in transfected cells; host or cells: HEK293
# [2] = target: T1, human melanocortin-4 receptor (MC-4R); assay: Membrane binding assay: competition with fluorescence labeled NDP-alpha-MSH, fluorescence polarization; settings: HEK293 cell membrane preparations expressing human MC-4R, read-out: hMC-4R binding assay IC50
# T1 sequence (P32245 whole entry): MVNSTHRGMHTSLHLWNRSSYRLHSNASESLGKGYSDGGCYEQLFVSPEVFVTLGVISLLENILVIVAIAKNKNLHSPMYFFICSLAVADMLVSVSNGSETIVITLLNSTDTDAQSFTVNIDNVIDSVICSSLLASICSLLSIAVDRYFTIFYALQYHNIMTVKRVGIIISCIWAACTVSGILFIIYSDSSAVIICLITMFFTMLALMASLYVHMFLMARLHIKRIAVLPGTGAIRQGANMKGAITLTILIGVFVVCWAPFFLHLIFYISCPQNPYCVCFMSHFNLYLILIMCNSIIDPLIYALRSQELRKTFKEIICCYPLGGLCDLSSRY
Structure (SMILES),Emax [1],IC50 [2],EC50 [1]
C[C@H](COc1cccnc1C1CCN(C(=O)[C@@H](Cc2ccc(Cl)cc2Cl)NC(=O)N2CCCC2)CC1)N(C)C [Example 25],0%,≤ 100 nM,
CN1CCOC[C@@H](Oc2cccnc2C2CCN(C(=O)[C@@H](Cc3ccc(Cl)cc3Cl)NC(=O)N3CCCC3)CC2)C1 [Example 52],4%,100 to 1000 nM,
CC[C@H](COc1cccnc1C1CCN(C(=O)[C@@H](Cc2ccc(Cl)cc2Cl)NC(=O)N2CC[C@H](F)C2)CC1)N1CCCC1 [Example 90],0%,≤ 100 nM,
C[C@@H](CCN(C)C)Oc1cccnc1C1CCN(C(=O)[C@@H](Cc2ccc(Cl)cc2Cl)NC(=O)N2CCCC2)CC1 [Example 62],-10%,≤ 100 nM,
CC[C@H](COc1cccnc1C1CCN(C(=O)[C@@H](Cc2ccc(Cl)cc2Cl)NC(=O)N2CC(C)(O)C2)CC1)N1CCCC1 [Example 99],0%,≤ 100 nM,
CC[C@H](COc1cccnc1C1CCN(C(=O)[C@@H](Cc2ccc(Cl)cc2Cl)NC(=O)N2CC[C@@H](F)C2)CC1)N1CCCC1 [Example 81],0%,≤ 100 nM,
CC[C@H](COc1cccnc1C1CCN(C(=O)[C@@H](Cc2ccc(Cl)cc2Cl)NC(=O)N(C)CCO)CC1)N1CCCC1 [Example 86],0%,≤ 100 nM,
Cc1ccc(C2CCN(C(=O)[C@@H](Cc3ccc(Cl)cc3Cl)NC(=O)N3CCCC3)CC2)c(N(C)CCN2CCCC2)n1 [Example 2],0%,≤ 100 nM,
CC[C@@H](CN1CCCC1)Oc1ncc(C)cc1C1CCN(C(=O)[C@@H](Cc2ccc(Cl)cc2Cl)NC(=O)N2CCCC2)CC1 [Example 9],0%,≤ 100 nM,
CC[C@H](COc1cccnc1C1CCN(C(=O)[C@@H](Cc2ccc(Cl)cc2Cl)NC(=O)N2CCCC2)CC1)N(C)C [Example 18],0%,≤ 100 nM,
CC[C@H](COc1cccnc1C1CCN(C(=O)[C@@H](Cc2ccc(Cl)cc2Cl)NC(=O)N2CC[C@@H](OC(C)=O)C2)CC1)N(C)C [Example 120],5%,≤ 100 nM,
CC[C@H](COc1cccnc1C1CCN(C(=O)[C@@H](Cc2ccc(Cl)cc2Cl)NC(=O)N2CCC[C@H](O)C2)CC1)N(C)C [Example 105],-3%,≤ 100 nM,
CC[C@H](COc1cccnc1C1CCN(C(=O)[C@@H](Cc2ccc(Cl)cc2Cl)NC(=O)N2CCC(O)(C(F)(F)F)C2)CC1)N(C)C (some centres unmarked) [Example 128],-8%,≤ 100 nM,
CN1CCN(c2cccnc2C2CCN(C(=O)[C@@H](Cc3ccc(Cl)cc3Cl)NC(=O)N3CCCC3)CC2)CC1 [Example 23],0%,100 to 1000 nM,
CC[C@H](COc1cccnc1C1CCN(C(=O)[C@@H](Cc2ccc(Cl)cc2Cl)NC(=O)N2CCC2)CC1)N1CCCC1 [Example 76],0%,≤ 100 nM,
CC[C@H](COc1ccncc1C1CCN(C(=O)[C@@H](Cc2ccc(Cl)cc2Cl)NC(=O)N2CCCC2)CC1)N(C)C [Example 13],0%,100 to 1000 nM,
CC[C@H](COc1cccnc1C1CCN(C(=O)[C@@H](Cc2ccc(Cl)cc2Cl)NC(=O)N2CCC(F)(F)CC2)CC1)N1CCCC1 [Example 83],0%,≤ 100 nM,
CN1CCN(Cc2cccnc2C2CCN(C(=O)[C@@H](Cc3ccc(Cl)cc3Cl)NC(=O)N3CCCC3)CC2)CC1 [Example 28],0%,100 to 1000 nM,
CC[C@H](COc1cccnc1C1CCN(C(=O)[C@@H](Cc2ccc(Cl)cc2Cl)NC(=O)N2CC[C@@H](CO)C2)CC1)N(C)C [Example 115],-8%,≤ 100 nM,
CN1CCC[C@H](Oc2cccnc2C2CCN(C(=O)[C@@H](Cc3ccc(Cl)cc3Cl)NC(=O)N3CC[C@H](O)C3)CC2)C1 [Example 141],-3%,≤ 100 nM,
CN1CCN(Cc2cc(Cl)cnc2C2CCN(C(=O)[C@@H](Cc3ccc(Cl)cc3Cl)NC(=O)N3CCCC3)CC2)CC1 [Example 39],-13%,≤ 100 nM,
CC[C@H](COc1cc(Cl)cnc1C1CCN(C(=O)[C@@H](Cc2ccc(C)cc2C)NC(=O)N2CCCC2)CC1)N1CCCC1 [Example 71],-4%,≤ 100 nM,
Cc1ccc(C2CCN(C(=O)[C@@H](Cc3ccc(F)cc3F)NC(=O)N3CCCC3)CC2)c(N2CCN(C)CC2)n1 [Example 67],33%,> 1000 nM,> 1000 nM
CC[C@@H](CN(C)C)Oc1cccnc1C1CCN(C(=O)[C@@H](Cc2ccc(Cl)cc2Cl)NC(=O)N2CC(O)C2)CC1 [Example 136],10%,≤ 100 nM,
CC[C@@H](COc1cccnc1C1CCN(C(=O)[C@@H](Cc2ccc(Cl)cc2Cl)NC(=O)N2CCCC2)CC1)N(C)C [Example 33],0%,100 to 1000 nM,
CN1CCC(Oc2cccnc2C2CCN(C(=O)[C@@H](Cc3ccc(Cl)cc3Cl)NC(=O)N3CCCC3)CC2)CC1 [Example 38],-5%,100 to 1000 nM,

Structure (SMILES),Emax [1],IC50 [2],EC50 [1]
CN(C)C(C)(C)COc1cccnc1C1CCN(C(=O)[C@@H](Cc2ccc(Cl)cc2Cl)NC(=O)N2CCCC2)CC1 [Example 20],0%,≤ 100 nM,
C[C@@H](CN1CCCC1)Oc1cccnc1C1CCN(C(=O)[C@@H](Cc2ccc(Cl)cc2Cl)NC(=O)N2CCCC2)CC1 [Example 16],0%,≤ 100 nM,
CC[C@H](COc1cccnc1C1CCN(C(=O)[C@@H](Cc2ccc(Cl)cc2Cl)NC(=O)N2CCC[C@@H]2C(C)(C)O)CC1)N(C)C [Example 121],-6%,≤ 100 nM,
CC[C@H](COc1cccnc1C1CCN(C(=O)[C@@H](Cc2ccc(Cl)cc2Cl)NC(=O)N2CC[C@H]2CO)CC1)N(C)C [Example 127],-3%,≤ 100 nM,
CC[C@H](COc1cccnc1C1CCN(C(=O)[C@@H](Cc2ccc(Cl)cc2Cl)NC(=O)N(C)CC(C)(C)O)CC1)N(C)C [Example 111],-23%,≤ 100 nM,
O=C(N[C@H](Cc1ccc(Cl)cc1Cl)C(=O)N1CCC(c2ncccc2OC2CN3CCC2CC3)CC1)N1CCCC1 (some centres unmarked) [Example 29],0%,100 to 1000 nM,
CC[C@H](COc1cccnc1C1CCN(C(=O)[C@@H](Cc2ccc(Cl)cc2Cl)NC(=O)N(C)CC)CC1)N(C)C [Example 101],5%,≤ 100 nM,
CC[C@H](COc1cc(Cl)cnc1C1CCN(C(=O)[C@@H](Cc2ccc(C)cc2C)NC(=O)N2CCCC2)CC1)N(C)C [Example 73],-15%,≤ 100 nM,
CN1CC[C@@H](Oc2cccnc2C2CCN(C(=O)[C@@H](Cc3ccc(Cl)cc3Cl)NC(=O)N3CCCC3)CC2)C1 [Example 43],0%,100 to 1000 nM,
CC[C@H](CN(C)C)Oc1cccnc1C1CCN(C(=O)[C@@H](Cc2ccc(Cl)cc2Cl)NC(=O)N2CCCC2)CC1 [Example 34],-3%,> 1000 nM,
CN1CCN(Cc2cc(F)cnc2C2CCN(C(=O)[C@@H](Cc3ccc(Cl)cc3Cl)NC(=O)N3CC(O)C3)CC2)CC1 [Example 144],2%,≤ 100 nM,
Cc1ccc(C2CCN(C(=O)[C@@H](Cc3ccc(F)cc3Cl)NC(=O)N3CCCC3)CC2)c(N2CCN(C)CC2)n1 [Example 66],0%,100 to 1000 nM,
O=C(N[C@H](Cc1ccc(Cl)cc1Cl)C(=O)N1CCC(c2ncccc2OCCN2CCCC2)CC1)N1CCCC1 [Example 14],0%,100 to 1000 nM,
CC[C@H](COc1cc(OC)cnc1C1CCN(C(=O)[C@@H](Cc2ccc(Cl)cc2Cl)NC(=O)N2CCCC2)CC1)N(C)C [Example 36],8%,≤ 100 nM,
CN1CCN(Cc2cc(F)cnc2C2CCN(C(=O)[C@@H](Cc3ccc(Cl)cc3Cl)NC(=O)N3CCCC3)CC2)CC1 [Example 59],-1%,≤ 100 nM,
COC[C@@H](CN(C)C)Oc1cccnc1C1CCN(C(=O)[C@@H](Cc2ccc(Cl)cc2Cl)NC(=O)N2CCCC2)CC1 [Example 47],-36%,≤ 100 nM,100 to 1000 nM
CC[C@H](COc1c(C)ccnc1C1CCN(C(=O)[C@@H](Cc2ccc(Cl)cc2Cl)NC(=O)N2CCCC2)CC1)N(C)C [Example 35],7%,100 to 1000 nM,
CC[C@@H](CN(C)C)Oc1cccnc1C1CCN(C(=O)[C@@H](Cc2ccc(Cl)cc2Cl)NC(=O)N2CC[C@@H](O)C2)CC1 [Example 139],-10%,≤ 100 nM,
CC[C@H](COc1cccnc1C1CCN(C(=O)[C@@H](Cc2ccc(Cl)cc2Cl)NC(=O)N2CC[C@H](O)C2)CC1)N(C)C [Example 103],-9%,≤ 100 nM,≤ 100 nM
Cc1ccc(C2CCN(C(=O)[C@@H](Cc3ccc(Cl)cc3Cl)NC(=O)N3CCCC3)CC2)c(N2CCN(C)CC2)n1 [Example 4],0%,≤ 100 nM,
CC[C@H](COc1cccnc1C1CCN(C(=O)[C@@H](Cc2ccc(Cl)cc2Cl)NC(=O)N(C)C)CC1)N1CCCC1 [Example 77],0%,≤ 100 nM,
CN1CCC[C@H](Oc2cccnc2C2CCN(C(=O)[C@@H](Cc3ccc(Cl)cc3Cl)NC(=O)N3CC[C@@H](O)C3)CC2)C1 [Example 143],-1%,≤ 100 nM,
CN1CCOC[C@@H]1COc1cccnc1C1CCN(C(=O)[C@@H](Cc2ccc(Cl)cc2Cl)NC(=O)N2CCCC2)CC1 [Example 55],2%,100 to 1000 nM,
CC[C@@H](CN1CCCC1)Oc1cnccc1C1CCN(C(=O)[C@@H](Cc2ccc(Cl)cc2Cl)NC(=O)N2CCCC2)CC1 [Example 11],0%,≤ 100 nM,
CC[C@H](COc1cccnc1C1CCN(C(=O)[C@@H](Cc2ccc(Cl)cc2Cl)NC(=O)N2CCC(C)(O)C2)CC1)N(C)C (some centres unmarked) [Example 110],0%,≤ 100 nM,
C#CC1(O)CN(C(=O)N[C@H](Cc2ccc(Cl)cc2Cl)C(=O)N2CCC(c3ncccc3OC[C@@H](CC)N(C)C)CC2)C1 [Example 118],11%,≤ 100 nM,

# Source: patent US20100249093A1, “Substituted Heteroarylpiperidine Derivatives As Melanocortin-4 Receptor Modulators” (SANTHERA PHARMACEUTICALS (SCHWEIZ) AG, priority 2007, published 2010)
